Measurements: PMC2778857 (Biochemistry, 2009)
Substitutions are numbered along the chain they refer to.

Columns and labels:
Assay in all cases: titration with apoprotein, FMN absorbance or fluorescence
[1] = biological target: T1, FMN-binding domain (FMN domain) of flavocytochrome P450BM-3 (BM3) (Priestia megaterium, UniProt P14779, Y537R)
T1 sequence (P14779 472-650 Y537R): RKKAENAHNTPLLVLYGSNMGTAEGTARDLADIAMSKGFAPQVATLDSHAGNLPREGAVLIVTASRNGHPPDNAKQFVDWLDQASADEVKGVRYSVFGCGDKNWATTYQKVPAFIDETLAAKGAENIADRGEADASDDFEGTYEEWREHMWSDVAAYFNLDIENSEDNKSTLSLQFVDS

[2] = biological target: T2, FMN-binding domain (FMN domain) of flavocytochrome P450BM-3 (BM3) (Priestia megaterium, UniProt P14779, N538G)
T2 sequence (P14779 472-650 N538G): T1 sequence (P14779 472-650 Y537R) with R66Y, N67G

[3] = biological target: T3, FMN-binding domain (FMN domain) of flavocytochrome P450BM-3 (BM3) (Priestia megaterium, UniProt P14779, P541A)
T3 sequence (P14779 472-650 P541A): T1 sequence (P14779 472-650 Y537R) with R66Y, P70A

[4] = biological target: T4, FMN-binding domain (FMN domain) of flavocytochrome P450BM-3 (BM3) (Priestia megaterium, UniProt P14779, P542A)
T4 sequence (P14779 472-650 P542A): T1 sequence (P14779 472-650 Y537R) with R66Y, P71A

[5] = biological target: T5, FMN-binding domain (FMN domain) of flavocytochrome P450BM-3 (BM3) (Priestia megaterium, UniProt P14779)
T5 sequence (P14779 472-650): T1 sequence (P14779 472-650 Y537R) with R66Y

[6] = biological target: T6, FMN-binding domain (FMN domain) of flavocytochrome P450BM-3 (BM3) (Priestia megaterium, UniProt P14779, G539A/N538A)
T6 sequence (P14779 472-650 N538A/G539A): T1 sequence (P14779 472-650 Y537R) with R66Y, N67A, G68A

[7] = biological target: T7, FMN-binding domain (FMN domain) of flavocytochrome P450BM-3 (BM3) (Priestia megaterium, UniProt P14779, G539A/N538G)
T7 sequence (P14779 472-650 N538G/G539A): T1 sequence (P14779 472-650 Y537R) with R66Y, N67G, G68A

[8] = biological target: T8, FMN-binding domain (FMN domain) of flavocytochrome P450BM-3 (BM3) (Priestia megaterium, UniProt P14779, Y537H)
T8 sequence (P14779 472-650 Y537H): T1 sequence (P14779 472-650 Y537R) with R66H

[9] = biological target: T9, FMN-binding domain (FMN domain) of flavocytochrome P450BM-3 (BM3) (Priestia megaterium, UniProt P14779, N538A)
T9 sequence (P14779 472-650 N538A): T1 sequence (P14779 472-650 Y537R) with R66Y, N67A

SMILES: Cc1cc2nc3c(=O)[nH]c(=O)nc-3n(C[C@H](O)[C@H](O)[C@H](O)COP(=O)(O)O)c2cc1C [FMN]
- Kd [1]: 2100 ± 600 nM
- Kd [2]: 30 ± 5 nM
- Kd [3]: 43 ± 7 nM
- Kd [4]: 140 ± 33 nM
- Kd [5]: 41 ± 18 nM
- Kd [6]: 1000 ± 200 nM
- Kd [7]: 400 ± 100 nM
- Kd [8]: 350 ± 72 nM
- Kd [9]: 30 ± 5 nM
